Measured values as given in PubChem BioAssay (NCI).
“And” between values parts separate entries of the source, which are not always exact repeats. Identical values can stand only once.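 Cultured in 96-well plates, cells were exposed to test compound for 48 hours across five concentrations. Here, GI50 denotes the concentration required for 50% inhibition of growth. Definition used: TGI = concentration required for complete inhibition of growth.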

Columns and labels:
Experiment in all cases: DTP human tumour cell line panel, 48 h
[1] = tested on: 786-0 renal
[2] = tested on: CCRF-CEM leukemia
[3] = tested on: IGROV1 ovarian
[4] = tested on: MALME-3M melanoma
[5] = tested on: SNB-19 CNS
[6] = tested on: SK-MEL-5 melanoma
[7] = tested on: EKVX NSCLC
[8] = tested on: UACC-257 melanoma
[9] = tested on: SK-MEL-2 melanoma
[10] = tested on: T-47D breast

SMILES | GI50 [1] [µM] | TGI [1] | GI50 [2] [µM] | TGI [2] [µM] | GI50 [3] [µM] | TGI [3] | GI50 [4] [µM] | TGI [4] | GI50 [5] [µM] | TGI [5] | GI50 [6] [µM] | TGI [6] | GI50 [7] [µM] | TGI [7] | GI50 [8] [µM] | TGI [8] | GI50 [9] [µM] | TGI [9] | GI50 [10] | TGI [10]
O=C1CN=C(c2ccc[nH]2)c2cc(Cl)ccc2N1 | > 100 | > 100 µM | 30.6 | > 100 | > 100 | > 100 µM | > 100 | > 100 µM | > 100 | > 100 µM | > 100 | > 100 µM | > 100 | > 100 µM | > 100 | > 100 µM | > 100 | > 100 µM | > 100 µM | > 100 µM
CCOC(=O)c1ccc(N2NC(=O)/C(=C/c3ccc([N+](=O)[O-])o3)C2=O)cc1 | 19.1 | 37.3 µM | 2 | > 61.6 | 20 | 41.4 µM | 15.6 | 35.1 µM | > 44.8 | > 72.2 µM | > 40.4 | > 54.9 µM | > 37.7 | > 53.1 µM | 16 | 30.8 µM | > 40.6 | > 55.4 µM | 8.92 µM | 33.4 µM
Cc1ccc(/C(=N/NS(=O)(=O)c2cc(C)c(Cl)cc2Cl)Sc2cc(Cl)c(C)cc2S(N)(=O)=O)cc1 | > 100 | > 100 µM | > 100 | > 100 | > 100 | > 100 µM | 63.6 | > 100 µM | > 100 | > 100 µM | > 100 | > 100 µM | 70.9 | > 100 µM | > 100 | > 100 µM | > 100 | > 100 µM | > 100 µM | > 100 µM
CCc1cc2c(c(OCC(F)(F)F)c(C(=O)NC3CCN(C(=O)CO)CC3)n2C)c(=O)n1CC(=O)c1ccccc1 | 33.4 | > 100 µM | 38.5 | > 100 | > 80.5 | > 100 µM | > 100 | > 100 µM | > 100 | > 100 µM | 80.2 | > 100 µM | > 100 | > 100 µM | > 82.2 | > 100 µM | 56.1 | > 100 µM | > 65.9 µM | > 100 µM
Cc1nnn(C)c1-c1cnc2c3ccc(C(C)(C)O)cc3n([C@H](c3ccccc3)C3CCOCC3)c2c1 | 0.0707 | 21.5 µM | 0.0663 | > 100 | < 0.02 | > 79.3 µM | 0.052 | 41.3 µM | 0.0395 | > 100 µM | < 0.01 | 10.7 µM | 0.221 | > 71.7 µM | < 0.0132 | 31.3 µM | 0.765 | 30.7 µM | 0.0104 µM | > 100 µM
c1cc(OCCN2CCCC2)ccc1CNc1ccc2nc(CCC3CCCCC3)[nH]c2c1 | 1.57 | 3.27 µM | 1.47 | 6.9 | 2.12 | 6.43 µM | 1.57 | 3.07 µM | 2.91 | 10 µM | 1.68 | 3.1 µM | 1.86 | 6.51 µM | 1.83 | 4.04 µM | 1.84 | 3.55 µM | 1.81 µM | 4.9 µM
CN1CCc2ccccc2C1Cc1ccccc1NC(=O)c1sc2ccccc2c1Cl (centres undefined) | – | > 100 µM | – | > 100 | – | > 100 µM | – | > 100 µM | – | > 100 µM | – | > 100 µM | – | > 100 µM | – | > 100 µM | – | > 100 µM | – | > 100 µM
COc1cc2c(cc1OC)[C@@H]1C(=O)c3ccc4c(c3O[C@@H]1CO2)C[C@H](C(C)C)O4 | 5.6 | > 79.8 µM | 5.41 | > 100 | 14.2 | > 85.5 µM | 5.56 | 53.2 µM | 9.74 | > 78.1 µM | 0.0375 | 12.9 µM | 0.239 | > 48.2 µM | 4.19 | > 57.7 µM | 18.5 | 57 µM | 0.175 µM | > 60.6 µM
ClCc1ccccc1Cn1cnc2nc(Cl)nc(Cl)c21 | 0.19 | 1.08 µM | 0.104 | 0.305 | 1.78 | 3.47 µM | 1.68 | 7.75 µM | 1.14 | 2.51 µM | 0.369 | 0.997 µM | 0.62 | 1.54 µM | 1.6 | 5.22 µM | 1.89 | 8.59 µM | 0.59 µM | 5.24 µM
COc1cc2c3c(n(CCCN=[N+]=[N-])c(=O)c2cc1OC)-c1ccc([N+](=O)[O-])cc1C3=O | 50.3 | > 100 µM | 38.7 | > 100 | 0.215 | 35 µM | > 100 | > 100 µM | > 100 | > 100 µM | > 100 | > 100 µM | 40.1 | > 100 µM | > 100 | > 100 µM | 36.5 | > 100 µM | 50.1 µM | > 100 µM
CCCCCSc1ccc2nc(NC(=O)OCC)sc2c1 | 0.541 | > 100 µM | 0.628 | > 100 | 0.945 | > 100 µM | 0.514 | > 100 µM | 0.778 | > 100 µM | 0.658 | > 100 µM | 0.557 | > 100 µM | > 100 | > 100 µM | 0.431 | 25.3 µM | 0.583 µM | > 100 µM
COc1ccc(OC)c(N2CC(O)=C(c3nc4ccccc4s3)C2=N)c1 | > 100 | > 100 µM | 0.541 | > 100 | 33.1 | > 100 µM | 16.4 | 82 µM | > 100 | > 100 µM | 14.7 | 46.6 µM | 67.3 | > 100 µM | > 100 | > 100 µM | 26.1 | > 100 µM | > 100 µM | > 100 µM
CC(=O)O[C@@H]1c2c(c3c(=O)c4cccc(O)c4c(=O)c=3c2=[N+]=[N-])[C@H](OC(C)=O)[C@@H](OC(C)=O)[C@]1(C)O | 0.221 | 0.944 µM and 0.548 µM | – | 0.0632 | 0.3 | 0.987 µM and 1.15 µM | 0.269 | 0.929 µM and 0.972 µM | 0.689 | 2.35 µM and 3.51 µM | 0.112 | 1.18 µM and 0.273 µM | 0.122 | 1.38 µM and 0.663 µM | 0.295 | 1.4 µM and 0.815 µM | 0.495 | 1.63 µM and 1.18 µM | 0.132 µM and 0.317 µM | 0.649 µM and 1.39 µM
COc1cc2c(/C=C3\C(=O)N(C)c4ccccc43)c[nH]c2cc1C | 4.43 | > 59.6 µM | 0.957 | 18.8 | 7.87 | > 69.6 µM | 1 | > 53.9 µM | 4.15 | > 100 µM | 2.36 | > 40 µM | 8.81 | > 100 µM | 23.5 | > 100 µM | 10.2 | > 84.1 µM | > 39.3 µM | > 100 µM
COc1cc(OC)c(C(=O)/C=C/c2ccc(C#N)cc2)c(OC)c1 | 1.86 | 6.88 µM | 1.37 | 15 | 1.56 | 7.75 µM | 2.23 | 10.3 µM | 1.84 | 6.87 µM | 1.97 | 6.95 µM | 2.07 | > 50 µM | 3.35 | 42.2 µM | 1.46 | 4.43 µM | 1.21 µM | 7.81 µM
COc1cccc(/C=C2\CCC(CN(C)C)C2=O)c1 (centres undefined) | – | 8.57 µM | – | 11.1 | – | 23.4 µM | – | 14 µM | – | 29.5 µM | – | 24.8 µM | – | 42.1 µM | – | 12.7 µM | – | 26.2 µM | – | 16.6 µM
